Measured values taken from patent US12691112B2, “FGFR tyrosine kinase inhibitors for the treatment of urothelial carcinoma” (Janssen Pharmaceutica NV, priority 2019, dated 2026).

System: metastatic or surgically unresectable urothelial cancer harboring select FGFR genetic alterations
Test: Phase 2 study NCT02365597: overall survival (Kaplan-Meier)
Format: in vivo, human
Experimental: The term “overall survival” is defined as the time from first dose to the date of death. Data for patients who are alive or have unknown status is censored at the last date on which the patient is known to be alive.
Patients were contacted every 12 weeks for survival assessment.
The study was designed to enroll 180 patients with specified FGFR alterations. Of these, ≥88 were required in the selected regimen. […] Responses were assessed by investigators and an independent radiological review committee. Progression-free survival and overall survival were estimated using Kaplan-Meier product limit method. Data from patients who were progression free and alive or with unknown status were censored at last tumor assessment. Efficacy end points were analysed at primary analysis cut-off.

[1] = FGFR fusions (excluding mutations), 6 mg QD
[2] = FGFR fusions (excluding mutations), 8 mg QD
[3] = FGFR fusions (excluding mutations), 10 mg 7 on/7 off
[4] = FGFR fusions (excluding mutations), Total
[5] = FGFR mutations (excluding fusions), 6 mg QD
[6] = FGFR mutations (excluding fusions), 8 mg QD
[7] = FGFR mutations (excluding fusions), 10 mg 7 on/7 off
[8] = FGFR mutations (excluding fusions), Total
[9] = FGFR mutations and fusions, 6 mg QD
[10] = FGFR mutations and fusions, 10 mg 7 on/7 off
[11] = FGFR mutations and fusions, Total

**Q.** `COc1cc(OC)cc(N(CCNC(C)C)c2ccc3ncc(-c4cnn(C)c4)nc3c2)c1` [erdafitinib, N-(3,5-dimethoxy-phenyl)-N′-(1-methylethyl)-N-[3-(1-methyl-1H-pyrazol-4-yl)quinoxalin-6-yl]ethane-1,2-diamine] was tested. Which “6-month overall survival rate (95% CI)” value [1] did it give?
**A.** 0.80 (0.41, 0.95)

**Q.** And the “12-month overall survival rate (95% CI)” value [1]?
**A.** 0.46 (0.14, 0.73)

**Q.** And the “18-month overall survival rate (95% CI)” value [1]?
**A.** 0.46 (0.14, 0.73)

**Q.** What about the “Overall survival, Median (95% CI)” value [1] of the same compound?
**A.** 9.33 (0.46, NE) months

**Q.** And the “Overall survival, Q1” value [1]?
**A.** 7.92 months

**Q.** What about the “Overall survival, Q3” value [1] of the same compound?
**A.** 18.96 months

**Q.** And the “6-month overall survival rate (95% CI)” value [2]?
**A.** 0.77 (0.54, 0.90)

**Q.** And the “12-month overall survival rate (95% CI)” value [2]?
**A.** 0.46 (0.24, 0.66)

**Q.** And the “Overall survival, Median (95% CI)” value [2]?
**A.** 10.32 (6.05, NE) months

**Q.** What about the “Overall survival, Q1” value [2] of the same compound?
**A.** 6.05 months

**Q.** What about the “Overall survival, Q3” value [2] of the same compound?
**A.** 14.03 months

**Q.** What about the “6-month overall survival rate (95% CI)” value [3] of the same compound?
**A.** 1.00 (1.00, 1.00)

**Q.** What about the “12-month overall survival rate (95% CI)” value [3] of the same compound?
**A.** 0.50 (0.01, 0.91)

**Q.** And the “18-month overall survival rate (95% CI)” value [3]?
**A.** 0 (NE, NE)

**Q.** What about the “24-month overall survival rate (95% CI)” value [3] of the same compound?
**A.** 0 (NE, NE)

**Q.** And the “Overall survival, Median (95% CI)” value [3]?
**A.** 10.37 (7.72, 13.01) months

**Q.** And the “Overall survival, Q1” value [3]?
**A.** 7.72 months

**Q.** What about the “Overall survival, Q3” value [3] of the same compound?
**A.** 13.01 months

**Q.** What about the “6-month overall survival rate (95% CI)” value [4] of the same compound?
**A.** 0.80 (0.62, 0.90)

**Q.** And the “12-month overall survival rate (95% CI)” value [4]?
**A.** 0.46 (0.28, 0.62)

**Q.** And the “18-month overall survival rate (95% CI)” value [4]?
**A.** 0.31 (0.12, 0.52)

**Q.** And the “Overall survival, Median (95% CI)” value [4]?
**A.** 9.33 (7.72, 18.96) months

**Q.** What about the “Overall survival, Q1” value [4] of the same compound?
**A.** 6.97 months

**Q.** And the “Overall survival, Q3” value [4]?
**A.** 18.96 months

**Q.** And the “6-month overall survival rate (95% CI)” value [5]?
**A.** 0.68 (0.54, 0.79)

**Q.** And the “12-month overall survival rate (95% CI)” value [5]?
**A.** 0.30 (0.18, 0.43)

**Q.** What about the “18-month overall survival rate (95% CI)” value [5] of the same compound?
**A.** 0.21 (0.11, 0.33)

**Q.** What about the “Overall survival, Median (95% CI)” value [5] of the same compound?
**A.** 8.31 (6.41, 9.63) months

**Q.** What about the “Overall survival, Q1” value [5] of the same compound?
**A.** 5.13 months

**Q.** And the “Overall survival, Q3” value [5]?
**A.** 14.82 months

**Q.** And the “6-month overall survival rate (95% CI)” value [6]?
**A.** 0.74 (0.61, 0.83)

**Q.** What about the “12-month overall survival rate (95% CI)” value [6] of the same compound?
**A.** 0.54 (0.38, 0.68)

**Q.** And the “Overall survival, Median (95% CI)” value [6]?
**A.** 12.02 (8.64, NE) months

**Q.** What about the “Overall survival, Q1” value [6] of the same compound?
**A.** 5.98, NE months

**Q.** What about the “6-month overall survival rate (95% CI)” value [7] of the same compound?
**A.** 0.70 (0.47, 0.84)

**Q.** And the “12-month overall survival rate (95% CI)” value [7]?
**A.** 0.31 (0.14, 0.50)

**Q.** And the “18-month overall survival rate (95% CI)” value [7]?
**A.** 0.26 (0.11, 0.45)

**Q.** What about the “24-month overall survival rate (95% CI)” value [7] of the same compound?
**A.** 0.22 (0.08, 0.40)

**Q.** What about the “Overall survival, Median (95% CI)” value [7] of the same compound?
**A.** 7.39 (5.78, 10.71) months

**Q.** And the “Overall survival, Q1” value [7]?
**A.** 5.55 months

**Q.** And the “Overall survival, Q3” value [7]?
**A.** 18.76 months

**Q.** And the “6-month overall survival rate (95% CI)” value [8]?
**A.** 0.71 (0.63, 0.78)

**Q.** What about the “12-month overall survival rate (95% CI)” value [8] of the same compound?
**A.** 0.39 (0.30, 0.48)

**Q.** And the “18-month overall survival rate (95% CI)” value [8]?
**A.** 0.29 (0.20, 0.39)

**Q.** And the “24-month overall survival rate (95% CI)” value [8]?
**A.** 0.24 (0.15, 0.35)

**Q.** And the “Overall survival, Median (95% CI)” value [8]?
**A.** 9.10 (7.46, 11.86) months

**Q.** What about the “Overall survival, Q1” value [8] of the same compound?
**A.** 5.49 months

**Q.** And the “Overall survival, Q3” value [8]?
**A.** 18.76 months

**Q.** What about the “6-month overall survival rate (95% CI)” value [9] of the same compound?
**A.** 0.75 (0.13, 0.96)

**Q.** And the “12-month overall survival rate (95% CI)” value [9]?
**A.** 0.75 (0.13, 0.96)

**Q.** What about the “18-month overall survival rate (95% CI)” value [9] of the same compound?
**A.** 0.38 (0.01, 0.81)

**Q.** And the “Overall survival, Median (95% CI)” value [9]?
**A.** 12.65 (0.39, NE) months

**Q.** And the “Overall survival, Q1” value [9]?
**A.** 6.52, NE months

**Q.** And the “6-month overall survival rate (95% CI)” value [10]?
**A.** 0.67 (0.05, 0.95)

**Q.** What about the “12-month overall survival rate (95% CI)” value [10] of the same compound?
**A.** 0 (NE, NE)

**Q.** What about the “18-month overall survival rate (95% CI)” value [10] of the same compound?
**A.** 0 (NE, NE)

**Q.** What about the “24-month overall survival rate (95% CI)” value [10] of the same compound?
**A.** 0 (NE, NE)

**Q.** What about the “Overall survival, Median (95% CI)” value [10] of the same compound?
**A.** 6.21 (3.98, 9.10) months

**Q.** What about the “Overall survival, Q1” value [10] of the same compound?
**A.** 3.98 months

**Q.** And the “Overall survival, Q3” value [10]?
**A.** 9.10 months

**Q.** What about the “6-month overall survival rate (95% CI)” value [11] of the same compound?
**A.** 0.71 (0.26, 0.92)

**Q.** And the “12-month overall survival rate (95% CI)” value [11]?
**A.** 0.43 (0.10, 0.73)

**Q.** And the “18-month overall survival rate (95% CI)” value [11]?
**A.** 0.21 (0.01, 0.59)

**Q.** And the “Overall survival, Median (95% CI)” value [11]?
**A.** 9.10 (0.39, NE) months

**Q.** And the “Overall survival, Q1” value [11]?
**A.** 3.98 months

**Q.** And the “Overall survival, Q3” value [11]?
**A.** 12.65 months

**Q.** And the “Median overall survival (95% CI)” value (Regimen 1, 10 mg intermittent)?
**A.** 7.5 (6.0 to 10.7) months

**Q.** What about the “overall survival rate at 12 months” value (Regimen 1, 10 mg intermittent) of the same compound?
**A.** 31%

**Q.** And the “Median overall survival (95% CI)” value (Regimen 2, 6 mg continuous)?
**A.** 8.6 (6.5 to 9.7) months

**Q.** And the “overall survival rate at 12 months” value (Regimen 2, 6 mg continuous)?
**A.** 33%

**Q.** And the “Survival rate at 12 months” value (Regimen 3, 8 mg continuous)?
**A.** 55%

**Q.** And the median overall survival (Regimen 3, 8 mg continuous)?
**A.** 13.8 months
